From ChEMBL document CHEMBL3421588, “Discovery of novel indirubin-3'-monoxime derivatives as potent inhibitors against CDK2 and CDK9” (Bioorg Med Chem Lett, 2015)
Values belong to the compound of their own block, whether it stands above or below them. The source made the active and inactive calls. The rule behind the calls is not given here.

What was measured:
[1] = Cytotoxicity against human HCT116 cells assessed as inhibition of cell growth by MTT assay; type: functional, cell-based, HCT-116
[2] = target: CDK9/cyclin T1 (Homo sapiens) (UniProt O60563+P50750); assay: Inhibition of against CDK9/cyclinT1 (unknown origin) at 10 uM using Ulight-CFFKNIVTPRTPPPSQGK-amide substrate and ATP incubated for 90 mins by fluorescence based assay; type: protein-complex assay
[3] = Cytotoxicity against human BGC823 cells assessed as inhibition of cell growth by MTT assay; type: functional, cell-based, BGC-823
[4] = Cytotoxicity against human […] cells assessed as inhibition of cell growth by MTT assay; type: functional, cell-based
HepG2 = assay: Cytotoxicity against human HepG2 cells assessed as inhibition of cell growth by MTT assay; type: functional, cell-based
A2780 = assay: Cytotoxicity against human A2780 cells assessed as inhibition of cell growth by MTT assay; type: functional, cell-based
[5] = target: Cyclin-dependent kinase 2/cyclin E1 (Homo sapiens, UniProt P24941); assay: Inhibition of against CDK2/cyclinE1 (unknown origin) using Ulight-CFFKNIVTPRTPPPSQGK-amide substrate and ATP incubated for 15 mins by fluorescence based assay; type: protein-complex assay
CDK9/cyclin T1 = CDK9/cyclin T1 (Homo sapiens, UniProt P50750); assay: Inhibition of against CDK9/cyclinT1 (unknown origin) using Ulight-CFFKNIVTPRTPPPSQGK-amide substrate and ATP incubated for 90 mins by fluorescence based assay; type: protein-complex assay
Sequence of CDK9/cyclin T1 (O60563 whole entry): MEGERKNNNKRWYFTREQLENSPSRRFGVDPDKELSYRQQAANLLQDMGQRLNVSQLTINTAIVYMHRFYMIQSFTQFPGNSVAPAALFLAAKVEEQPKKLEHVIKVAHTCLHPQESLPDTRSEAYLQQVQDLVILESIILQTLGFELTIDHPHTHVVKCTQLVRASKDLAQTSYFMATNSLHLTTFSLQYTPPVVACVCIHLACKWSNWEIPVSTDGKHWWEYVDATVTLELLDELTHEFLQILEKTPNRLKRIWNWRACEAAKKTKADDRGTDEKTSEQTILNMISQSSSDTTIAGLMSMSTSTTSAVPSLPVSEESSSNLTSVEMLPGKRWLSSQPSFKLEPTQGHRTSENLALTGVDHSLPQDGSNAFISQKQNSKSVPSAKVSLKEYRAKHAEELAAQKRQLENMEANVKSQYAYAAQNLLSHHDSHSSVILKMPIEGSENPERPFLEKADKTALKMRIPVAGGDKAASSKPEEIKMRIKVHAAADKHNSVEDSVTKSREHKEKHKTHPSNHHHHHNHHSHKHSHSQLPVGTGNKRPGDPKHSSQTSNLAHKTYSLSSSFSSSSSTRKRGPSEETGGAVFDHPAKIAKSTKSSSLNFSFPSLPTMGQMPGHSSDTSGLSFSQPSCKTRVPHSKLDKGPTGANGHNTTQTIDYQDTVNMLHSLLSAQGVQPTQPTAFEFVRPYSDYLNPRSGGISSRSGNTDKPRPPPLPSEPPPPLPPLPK
Sequence of CDK9/cyclin T1 (P50750 whole entry): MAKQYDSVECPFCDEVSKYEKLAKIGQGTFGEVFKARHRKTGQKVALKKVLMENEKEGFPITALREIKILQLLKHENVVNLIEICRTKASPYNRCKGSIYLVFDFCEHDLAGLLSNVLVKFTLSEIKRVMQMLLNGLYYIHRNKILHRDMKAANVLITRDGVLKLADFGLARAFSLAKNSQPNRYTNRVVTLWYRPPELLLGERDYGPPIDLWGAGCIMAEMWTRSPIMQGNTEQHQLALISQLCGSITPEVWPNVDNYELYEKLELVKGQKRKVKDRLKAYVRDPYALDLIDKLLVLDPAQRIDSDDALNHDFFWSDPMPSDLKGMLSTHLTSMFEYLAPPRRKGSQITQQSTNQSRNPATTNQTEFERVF

Homo sapiens = organism: Homo sapiens; assay: Selectivity index, ratio of IC50 for CDK2/cyclinE1 (unknown origin) to IC50 for CDK9/cyclinT1 (unknown origin)
BGC-823 = assay: Cytotoxicity against human BGC823 cells assessed as inhibition of cell growth at 10 uM by MTT assay; type: functional, cell-based
[6] = Homo sapiens, HCT-116, read-out: IC50
[7] = Homo sapiens, BGC-823, read-out: IC50
[8] = Homo sapiens, HepG2, read-out: IC50
[9] = Homo sapiens, A2780, read-out: IC50

- inhibition [2]: < 30%
SMILES: CO/N=C1/C(=C2/C(=O)Nc3ccc(F)cc32)Nc2cc(F)c(F)cc21
- IC50 ([1]; hct-116): Not Active
- IC50 ([3]; bgc-823): Not Active
- IC50 [4]: Not Active
- IC50 (HepG2; hepg2): Not Active
- IC50 (A2780; a2780): Not Active

- inhibition [2]: < 30%
SMILES: COc1ccc2c(c1)/C(=C1/Nc3ccc(OC(F)(F)F)cc3/C1=N\O)C(=O)N2
- IC50 ([1]; hct-116): Not Active
- IC50 ([3]; bgc-823): Not Active
- IC50 [4]: Not Active
- IC50 (HepG2; hepg2): Not Active
- IC50 (A2780; a2780): Not Active

- inhibition [2]: 67%
SMILES: O=C1Nc2ccccc2/C1=C1/Nc2cc(F)c(F)cc2/C1=N\O
- IC50 [1, 6]: 2320 nM
- IC50 [3, 7]: 6.45 µM
- IC50 ([4]; Homo sapiens, read-out: IC50): 3040 nM
- IC50 (HepG2; [8]): 1910 nM
- IC50 (A2780; [9]): 2500 nM

- inhibition [2]: < 30%
SMILES: O=C1Nc2c(cccc2C(F)(F)F)/C1=C1/Nc2cc(F)c(F)cc2/C1=N\O
- IC50 ([1]; hct-116): Not Active
- IC50 ([3]; bgc-823): Not Active
- IC50 [4]: Not Active
- IC50 (HepG2; hepg2): Not Active
- IC50 (A2780; a2780): Not Active

- IC50 [5]: 2700 nM
- inhibition [2]: 85%
- IC50 (CDK9/cyclin T1): 1700 nM
SMILES: O=C1Nc2ccc(F)cc2/C1=C1/Nc2cc(F)c(F)cc2/C1=N\O
- IC50 [1, 6]: 940 nM
- IC50 [3, 7]: 9.65 µM
- IC50 ([4]; Homo sapiens, read-out: IC50): 2720 nM
- IC50 (HepG2; [8]): 2680 nM
- IC50 (A2780; [9]): 2370 nM

- inhibition [2]: < 30%
SMILES: O=C1Nc2c(Cl)cccc2/C1=C1/Nc2cc(F)c(F)cc2/C1=N\O
- IC50 ([1]; hct-116): Not Active
- IC50 ([3]; bgc-823): Not Active
- IC50 [4]: Not Active
- IC50 (HepG2; hepg2): Not Active
- IC50 (A2780; a2780): Not Active

- IC50 [5]: 6400 nM
- inhibition [2]: 86%
- IC50 (CDK9/cyclin T1): 400 nM
- Ratio IC50 (Homo sapiens): 15
SMILES: O=C1Nc2ccc(Cl)cc2/C1=C1/Nc2cc(F)c(F)cc2/C1=N\O

- IC50 [5]: 400 nM
- inhibition [2]: 84%
- IC50 (CDK9/cyclin T1): 300 nM
SMILES: COc1ccc2c(c1)/C(=C1/Nc3cc(F)c(F)cc3/C1=N\OCCO)C(=O)N2

- inhibition [2]: 59%
SMILES: O=C1Nc2cc(Cl)ccc2/C1=C1/Nc2cc(F)c(F)cc2/C1=N\O

Further lines, the compound ahead of its results:

SMILES: CO/N=C1/C(=C2/C(=O)Nc3ccc([N+](=O)[O-])cc32)Nc2cc(F)c(F)cc21
- IC50 ([1]; hct-116): Not Active
- inhibition [2]: < 30%
- IC50 ([3]; bgc-823): Not Active
- IC50 [4]: Not Active
- IC50 (HepG2; hepg2): Not Active
- IC50 (A2780; a2780): Not Active

SMILES: COc1ccc2c(c1)/C(=C1/Nc3cc(F)c(F)cc3/C1=N\O)C(=O)N2
- IC50 [5]: 1100 nM
- inhibition [2]: 81%
- IC50 (CDK9/cyclin T1): 1900 nM

SMILES: O=C1Nc2ccc(OC(F)(F)F)cc2/C1=C1/Nc2cc(F)c(F)cc2/C1=N\O
- IC50 [5]: 4100 nM
- inhibition [2]: 74%
- IC50 (CDK9/cyclin T1): 5600 nM

SMILES: CN1C(=O)/C(=C2\Nc3cc(F)c(F)cc3\C2=N/O)c2ccccc21
- IC50 [1, 6]: 2220 nM
- inhibition [2]: 52%
- IC50 [3, 7]: 9.2 µM
- IC50 ([4]; Homo sapiens, read-out: IC50): 2770 nM
- IC50 (HepG2; [8]): 2540 nM
- IC50 (A2780; [9]): 4030 nM

SMILES: O=Nc1c(-c2c(O)[nH]c3ccccc23)[nH]c2ccccc12 [INDIRUBIN-3-MONOXIME]
- IC50 [5]: 700 nM
- inhibition [2]: 70%
- IC50 (CDK9/cyclin T1): 2400 nM

SMILES: O=C1Nc2c(Cl)cc(Cl)cc2/C1=C1/Nc2cc(F)c(F)cc2/C1=N\O
- IC50 ([1]; hct-116): Not Active
- inhibition [2]: < 30%
- IC50 ([3]; bgc-823): Not Active
- IC50 [4]: Not Active
- IC50 (HepG2; hepg2): Not Active
- IC50 (A2780; a2780): Not Active

SMILES: O=C1Nc2ccc([N+](=O)[O-])cc2/C1=C1/Nc2cc(F)c(F)cc2/C1=N\O
- IC50 [1, 6]: 2160 nM
- IC50 [5]: 1000 nM
- inhibition [2]: 89%
- IC50 [3, 7]: 6.14 µM
- IC50 ([4]; Homo sapiens, read-out: IC50): 2210 nM
- IC50 (HepG2; [8]): 2450 nM
- IC50 (A2780; [9]): 2220 nM
- IC50 (CDK9/cyclin T1): 700 nM

SMILES: O=C1Nc2ccc([N+](=O)[O-])cc2/C1=C1/Nc2ccc(OC(F)(F)F)cc2/C1=N\O
- IC50 ([1]; hct-116): Not Active
- inhibition [2]: < 30%
- IC50 ([3]; bgc-823): Not Active
- IC50 [4]: Not Active
- IC50 (HepG2; hepg2): Not Active
- IC50 (A2780; a2780): Not Active

SMILES: Nc1ccc2c(c1)/C(=C1/Nc3cc(F)c(F)cc3/C1=N\O)C(=O)N2
- IC50 [1, 6]: 5820 nM
- growth inhibition (GI) (BGC-823): inactive
- inhibition [2]: 60%
- IC50 ([4]; Homo sapiens, read-out: IC50): 2540 nM
- IC50 (HepG2; [8]): 5620 nM
- IC50 (A2780; [9]): 2260 nM

SMILES: O=C1Nc2ccc(F)cc2/C1=C1/Nc2ccc(OC(F)(F)F)cc2/C1=N\O
- IC50 ([1]; hct-116): Not Active
- inhibition [2]: < 30%
- IC50 ([3]; bgc-823): Not Active
- IC50 [4]: Not Active
- IC50 (HepG2; hepg2): Not Active
- IC50 (A2780; a2780): Not Active

SMILES: Cc1ccc2c(c1)/C(=C1/Nc3cc(F)c(F)cc3/C1=N\O)C(=O)N2
- inhibition [2]: 65%
